# Results as given in BindingDB's records for doi:10.1021/acs.jmedchem.7b00585 (The Scripps Research Institute, 2017).
# Target: T1, Estrogen receptor (Homo sapiens, UniProt P03372)
# T1 sequence (P03372 whole entry): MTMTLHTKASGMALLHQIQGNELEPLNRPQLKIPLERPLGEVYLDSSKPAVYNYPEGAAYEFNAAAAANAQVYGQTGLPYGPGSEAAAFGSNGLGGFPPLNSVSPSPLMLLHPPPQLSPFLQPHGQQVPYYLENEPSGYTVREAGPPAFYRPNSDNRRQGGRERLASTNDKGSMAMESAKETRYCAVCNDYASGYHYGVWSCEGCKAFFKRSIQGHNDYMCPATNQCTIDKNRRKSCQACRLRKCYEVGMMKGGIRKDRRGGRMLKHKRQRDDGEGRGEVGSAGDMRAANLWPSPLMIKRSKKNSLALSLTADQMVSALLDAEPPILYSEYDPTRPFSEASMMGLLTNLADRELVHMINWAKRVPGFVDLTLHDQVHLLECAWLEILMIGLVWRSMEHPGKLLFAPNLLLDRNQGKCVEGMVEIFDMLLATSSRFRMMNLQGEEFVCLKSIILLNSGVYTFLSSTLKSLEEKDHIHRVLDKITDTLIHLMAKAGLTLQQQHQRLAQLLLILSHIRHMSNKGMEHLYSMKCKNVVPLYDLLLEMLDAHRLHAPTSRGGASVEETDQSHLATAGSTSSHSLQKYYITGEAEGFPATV
# Assay: ChEBML_1664056
# Description: (§1) Displacement of [3H]estradiol from full-length human ERalpha receptor by scintillation counting
row,Ki [nM],SMILES
1,0.71,CCCCNC(=O)/C=C/c1ccc(C(=C2C3CC4CC(C3)CC2C4)c2ccc(O)cc2)cc1

# Target: T1, Estrogen receptor
# Assay: as §1
row,SMILES,Ki [nM]
1,CCCCN(C)C(=O)/C=C/c1ccc(C(=C2C3CC4CC(C3)CC2C4)c2ccc(O)cc2)cc1,0.71
2,O=C(/C=C/c1ccc(C(=C2C3CC4CC(C3)CC2C4)c2ccc(O)cc2)cc1)OCCCO,0.71
3,O=C(/C=C/c1ccc(C(=C2C3CC4CC(C3)CC2C4)c2ccc(O)cc2)cc1)NCCCO,0.43

# Next, values leading:
row,Ki [nM],SMILES
1,0.43,COC(=O)/C=C/c1ccc(C(=C2C3CC4CC(C3)CC2C4)c2ccc(O)cc2)cc1
2,0.37,O=C(/C=C/c1ccc(C(=C2C3CC4CC(C3)CC2C4)c2ccc(O)cc2)cc1)OCCO
3,0.37,NCCCNC(=O)/C=C/c1ccc(C(=C2C3CC4CC(C3)CC2C4)c2ccc(O)cc2)cc1
